Source: PubChem BioAssay (NCI)
Several values for one entry are separate records, joined by “and”; a condition that tells them apart may be missing. Equal values may be shown once.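 The compound was tested at five concentrations on cells cultured in 96-well plates, with a 48-hour exposure period. Abbreviation: GI50, concentration required for 50% inhibition of growth. The concentration for full growth arrest is given as TGI.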

Legend:
Experiment in all cases: NCI anticancer screen, dose series, 48 h
A549 NSCLC = test system: A549 NSCLC
ACHN renal = test system: ACHN renal
SNB-75 CNS = test system: SNB-75 CNS
OVCAR-5 ovarian = test system: OVCAR-5 ovarian
SF-539 CNS = test system: SF-539 CNS
MOLT-4 leukemia = test system: MOLT-4 leukemia
NCI-H226 lung = test system: NCI-H226 lung
COLO 205 colon = test system: COLO 205 colon
CAKI-1 renal = test system: CAKI-1 renal
MDA-MB-435 = test system: MDA-MB-435

Row | SMILES | TGI (A549 NSCLC) | TGI (ACHN renal) | TGI (SNB-75 CNS) | TGI (OVCAR-5 ovarian) | TGI (SF-539 CNS) | TGI (MOLT-4 leukemia) | TGI (NCI-H226 lung) | TGI (COLO 205 colon) | TGI (CAKI-1 renal) | TGI (MDA-MB-435) | GI50 (A549 NSCLC) | GI50 (SNB-75 CNS) | GI50 (OVCAR-5 ovarian) | GI50 (CAKI-1 renal) | GI50 (ACHN renal) | GI50 (SF-539 CNS) | GI50 (MOLT-4 leukemia) | GI50 (MDA-MB-435)
1 | COc1cc(C2C(=O)C(Cl)N2Nc2nc(C)cc(=O)[nH]2)cc(OC)c1OC (configuration not stated) | > 100 µM | 68.5 µM | 43.3 µM | > 100 µM | 35.1 µM | 39.9 µM | 62.6 µM | – | – | – | – | – | – | – | – | – | – | –
2 | CCCCCCCCCCCCCCCCCC(=O)OCC1OC(OC)C(NC(=O)N(CCCl)N=O)C(O)C1O (configuration not stated) | 52.1 µM | 47.3 µM | 41.6 µM | > 100 µM | 24.2 µM | 57.3 µM | 86.8 µM | > 100 µM | > 100 µM | – | – | – | – | – | – | – | – | –
3 | COc1cccc(NC(=O)CC(=O)NN2C(=O)/C(=C/c3ccc(N(CCC#N)CCC#N)cc3)N=C2c2cc([N+](=O)[O-])ccc2Cl)c1 | > 100 µM | > 100 µM | – | 72.3 µM | > 100 µM | > 100 µM | 30.1 µM | > 100 µM | > 100 µM | – | – | – | – | – | – | – | – | –
4 | O=C1CS(=O)(=O)C(c2cccc(Oc3ccccc3)c2)N1C1CC1 (configuration not stated) | > 100 µM | 80 µM | 80.7 µM | > 100 µM | > 100 µM | > 100 µM | 83.6 µM | 72.9 µM | – | 75.1 µM | – | – | – | – | – | – | – | –
5 | O=S(=O)(O)c1ccc2c(N=Nc3ccccc3)c(O)ccc2c1 | > 100 µM | > 100 µM | > 100 µM | > 100 µM | > 100 µM | > 100 µM | > 100 µM | > 100 µM | > 100 µM | > 100 µM | – | – | – | – | – | – | – | –
6 | C/C(=C\C(=N\NC(=N)N)c1ccccc1)c1ccccc1 | 16.9 µM | 1.17 µM | 17.3 µM | 3.35 µM | 1.85 µM | 2.04 µM | 13 µM | 0.284 µM | 1.59 µM | 2.97 µM | – | – | – | – | – | – | – | –
7 | Cn1c(=O)ccc2c(=O)c3ccccc3oc21 | > 100 µM | > 100 µM | – | > 100 µM | > 100 µM | – | > 100 µM | > 100 µM | > 100 µM | > 100 µM | – | – | – | – | – | – | – | –
8 | Cc1cc(=O)n2c3c(c4c(cc13)c(CN(C)C)cc(=O)n4C)OC2 | > 55.1 µM | 39.1 µM | 58.6 µM | > 77 µM | 24.2 µM | > 100 µM | > 67.1 µM | 35.1 µM | 97 µM | > 58.2 µM | – | – | – | – | – | – | – | –
9 | C=C1CC2C3C=C(C)C4=CC(=O)CC[C@]4(C)C3CC[C@]2(C)[C@@]1(OC(C)=O)C(C)=O (some centres not stated) | > 100 µM | – | > 100 µM | > 100 µM | – | – | – | – | > 100 µM | – | 2.63 µM | 8.76 µM | > 100 µM | 2.96 µM | – | – | – | –
10 | COP(=O)(OC)[C@H](O)[C@H]1C[C@@H]1c1ccccc1 | > 100 µM | > 100 µM | > 100 µM | > 100 µM | – | > 100 µM | > 100 µM | > 100 µM | > 100 µM | > 100 µM | – | – | – | – | – | – | – | –
11 | CCCC[C@H]1C(=O)O[C@H](C)[C@H](NC(=O)c2cccc(NC=O)c2OC)C(=O)O[C@@H](C)[C@@H]1OC(=O)CC(C)C (tested in a mixture with another compound) | 23 µM | 41.4 µM | 17.9 µM | 51.6 µM | 51.9 µM | 51.4 µM | 35 µM | 27.1 µM | 31 µM | 25.6 µM | – | – | – | – | – | – | – | –
12 | O=CN1CCC23CC(O)CCC2C1Cc1cc(Oc2nnnn2-c2ccccc2)cc(O)c13 (configuration not stated) | > 100 µM | > 100 µM | > 100 µM | > 100 µM | > 100 µM | > 100 µM | > 100 µM | > 100 µM | > 100 µM | > 100 µM | – | – | – | – | – | – | – | –
13 | CN1NC(c2ccccc2)=C(C#N)C(=O)CC1c1ccc(F)cc1 (configuration not stated) | > 100 µM | > 100 µM | > 100 µM | > 100 µM | – | > 100 µM | > 100 µM | > 100 µM | > 100 µM | – | – | – | – | – | – | – | – | –
14 | O=c1[nH]c2cc([N+](=O)[O-])c(N/N=C/c3ccc(Cl)cc3Cl)c([N+](=O)[O-])c2[nH]1 | > 100 µM | > 100 µM | > 100 µM | > 100 µM | > 100 µM | > 100 µM | > 100 µM | > 100 µM | > 100 µM | > 100 µM | – | – | – | – | – | – | – | –
15 | COc1ccc(N=Nc2c(N)nn(C)c2N)cc1 | > 100 µM | > 100 µM | > 100 µM | > 100 µM | > 100 µM | > 100 µM | > 100 µM | > 100 µM | > 100 µM | – | – | – | – | – | – | – | – | –
16 | CCOC(=O)C12CC(C)=C(C)CC1CCCc1ccccc12 (configuration not stated) | > 100 µM | 36 µM | 71.1 µM | 50.9 µM | 85.7 µM | 52.3 µM | 56 µM | 33.9 µM | > 100 µM | 97.2 µM | – | – | – | – | – | – | – | –
17 | O=c1[nH]c(=O)n(CCOCP(=O)(O)O)nc1Br | > 100 µM | > 100 µM | > 100 µM | > 100 µM | > 100 µM | > 100 µM | > 100 µM | > 100 µM | > 100 µM | > 100 µM | – | – | – | – | – | – | – | –
18 | Cn1cc(-c2nnc(-c3ccc(Cl)cc3)[nH]c2=O)c2ccccc21 | > 100 µM | > 76.1 µM | 35.1 µM | > 100 µM | – | 98.8 µM | 35.4 µM | > 100 µM | > 100 µM | 1.4 µM | – | – | – | – | – | – | – | –
19 | C[C@H]1CCC/C=C/[C@@H]2C[C@H](O)C[C@H]2[C@H](O)/C=C/C(=O)O1 | > 100 µM | 1.39 µM and 2.36 µM | – | – | – | – | 0.0954 µM and 0.148 µM and 0.0478 µM | < 0.01 µM and 0.0354 µM | 0.0596 µM and 0.199 µM and 0.36 µM | – | < 0.0207 µM and 0.0435 µM and 0.0578 µM | 0.0185 µM | 0.0857 µM | 0.0227 µM and 0.0545 µM and 0.0438 µM | 0.0354 µM and 0.0938 µM and 0.0626 µM | 0.0321 µM | < 0.0165 µM and 0.0481 µM and 0.0564 µM | < 0.0173 µM and 0.0369 µM and 0.0449 µM
